Source: article PMC10974284, “Discovery of Novel 4-Hydroxyquinazoline Derivatives: In Silico, In Vivo and In Vitro Studies Using Primary PARPi-Resistant Cell Lines” (Molecules, 2024)
Like-named read-outs stand apart in the source and are kept apart here.

Columns and labels:
HCT-15 cell lines = assay: MTT cytotoxicity assay, HCT-15; type: cell-based, human; settings: for IC50 / inhibition at 50 µM: Homo sapiens; for IC50: read-out: IC50 HCT-15; for inhibition at 50 µM: read-out: Inhibition rate (%) HCT-15
Experimental: (§1) After treatment with target compounds at the different concentrations, MTT was added and the cells were incubated for another 4 h. The IC50 values of the selected compounds were evaluated by the same method. The cells were treated with compounds at different concentrations. The OD values were detected using a microplate reader at 570 nm.

HCC1937 cell lines = assay: MTT cytotoxicity assay, HCC1937; type: cell-based, human; settings: for IC50 / inhibition at 50 µM: Homo sapiens; for IC50: read-out: IC50 HCC1937; for inhibition at 50 µM: read-out: Inhibition rate (%) HCC1937
Experimental: as §1

[1] = HCT-15, 72 h (3-Days) drug exposure, MTT
[2] = HCC1937, 72 h (3-Days) drug exposure, MTT

SMILES	melting point	IC50 (HCT-15 cell lines; [1])	IC50 (HCC1937 cell lines; [2])	also measured
O=C(Nc1ccc(C(F)(F)F)cc1)N1CCN(Cc2nc3ccccc3c(=O)[nH]2)CC1 [A15, 4-((4-oxo-3,4-dihydroquinazolin-2-yl)methyl)-N-(4-(trifluoromethyl)phenyl)piperazine-1-carboxamide]	198.8 to 200.6 °C	15.6 ± 0.56 µM	> 50 µM	–
Cc1ccc(NC(=O)N2CCN(Cc3nc4ccccc4c(=O)[nH]3)CC2)c(F)c1 [A22, N-(2-fluoro-4-methylphenyl)-4-((4-oxo-3,4-dihydroquinazolin-2-yl)methyl)piperazine-1-carboxamide]	198.4 to 200.7 °C	21.7 ± 1.16 µM	> 50 µM	–
O=c1[nH]c(=O)n([C@H]2C[C@H](O)[C@@H](CO)O2)cc1/C=C/Br [compound 33]	–	–	–	Inhibition rate (%) HCT-15 (HCT-15 cell lines; 50 μM, 72 h, MTT): 28.5%; Inhibition rate (%) HCC1937 (HCC1937 cell lines; 50 μM, 72 h, MTT): 17.3%
CC(C)(C)OC(=O)N1CCN(Cc2nc3ccccc3c(=O)[nH]2)CC1 [compound 3]	–	–	–	inhibition at 50 µM (HCT-15 cell lines; HCT-15, 50 μM, 72 h, MTT): 52.3%; inhibition at 50 µM (HCC1937 cell lines; HCC1937, 50 μM, 72 h, MTT): 19.5%
Cc1cc(C)cc(NC(=O)N2CCN(Cc3nc4ccccc4c(=O)[nH]3)CC2)c1 [A38, N-(3,5-dimethylphenyl)-4-((4-oxo-3,4-dihydroquinazolin-2-yl)methyl)piperazine-1-carboxamide]	201.5 to 203.3 °C	18 ± 0.88 µM	17.9 ± 1.32 µM	–
Cc1cccc(NC(=O)N2CCN(Cc3nc4ccccc4c(=O)[nH]3)CC2)c1 [A11, 4-((4-oxo-3,4-dihydroquinazolin-2-yl)methyl)-N-(m-tolyl)piperazine-1-carboxamide]	197.8 to 200.2 °C	25.6 ± 1.17 µM	> 50 µM	–
Cc1ccc(-c2cc(C(F)(F)F)nn2-c2ccc(S(N)(=O)=O)cc2)cc1 [compound 54]	–	–	–	Inhibition rate (%) HCT-15 (HCT-15 cell lines; 50 μM, 72 h, MTT): 33.5%; Inhibition rate (%) HCC1937 (HCC1937 cell lines; 50 μM, 72 h, MTT): 33.1%
Cc1c(Br)cccc1NC(=O)N1CCN(Cc2nc3ccccc3c(=O)[nH]2)CC1 [A31, N-(3-bromo-2-methylphenyl)-4-((4-oxo-3,4-dihydroquinazolin-2-yl)methyl)piperazine-1-carboxamide]	200.6 to 202.2 °C	> 50 µM	> 50 µM	–
O=C(Nc1ccc(Br)cc1)N1CCN(Cc2nc3ccccc3c(=O)[nH]2)CC1 [A9, N-(4-bromophenyl)-4-((4-oxo-3,4-dihydroquinazolin-2-yl)methyl)piperazine-1-carboxamide]	187.8 to 188.9 °C	> 50 µM	> 50 µM	–
Cc1ccccc1NC(=O)N1CCN(Cc2nc3ccccc3c(=O)[nH]2)CC1 [A10, 4-((4-oxo-3,4-dihydroquinazolin-2-yl)methyl)-N-(o-tolyl)piperazine-1-carboxamide]	199.9 to 201.6 °C	15.9 ± 0.85 µM	14.7 ± 1.03 µM	–
O=C(Nc1ccccc1Br)N1CCN(Cc2nc3ccccc3c(=O)[nH]2)CC1 [A7, N-(2-bromophenyl)-4-((4-oxo-3,4-dihydroquinazolin-2-yl)methyl)piperazine-1-carboxamide]	195.1 to 196.7 °C	29.6 ± 1.37 µM	40.3 ± 3.32 µM	–
Cc1cccc(NC(=O)N2CCN(Cc3nc4ccccc4c(=O)[nH]3)CC2)c1F [A21, N-(2-fluoro-3-methylphenyl)-4-((4-oxo-3,4-dihydroquinazolin-2-yl)methyl)piperazine-1-carboxamide]	200.5 to 202.1 °C	28.3 ± 1.55 µM	> 50 µM	–
COC(=O)c1ccccc1N [compound 1]	–	–	–	inhibition at 50 µM (HCT-15 cell lines; HCT-15, 72 h): 13.7%; inhibition at 50 µM (HCC1937 cell lines; HCC1937, 72 h): 12.7%
O=C(Nc1cccc(Br)c1)N1CCN(Cc2nc3ccccc3c(=O)[nH]2)CC1 [A8, N-(3-bromophenyl)-4-((4-oxo-3,4-dihydroquinazolin-2-yl)methyl)piperazine-1-carboxamide]	194.2 to 196.3 °C	27.7 ± 2.56 µM	47.4 ± 2.96 µM	–
O=C(Nc1cc(F)ccc1F)N1CCN(Cc2nc3ccccc3c(=O)[nH]2)CC1 [A20, N-(2,5-difluorophenyl)-4-((4-oxo-3,4-dihydroquinazolin-2-yl)methyl)piperazine-1-carboxamide]	202.1 to 204.2 °C	33.1 ± 2.16 µM	41.7 ± 1.89 µM	–
O=C(Nc1cccc(F)c1)N1CCN(Cc2nc3ccccc3c(=O)[nH]2)CC1 [A2, N-(3-fluorophenyl)-4-((4-oxo-3,4-dihydroquinazolin-2-yl)methyl)piperazine-1-carboxamide]	189.5 to 192.1 °C	34.9 ± 2.23 µM	> 50 µM	–
Cc1ccc(Cl)cc1NC(=O)N1CCCN(Cc2nc3ccccc3c(=O)[nH]2)C1 [B7, N-(5-chloro-2-methylphenyl)-3-((4-oxo-3,4-dihydroquinazolin-2-yl)methyl)tetrahydropyrimidine-1(2H)-carboxamide]	197.3 to 198.7 °C	13.7 ± 1.21 µM	57.9 ± 3.33 µM	–
Cc1ccc2c(=O)[nH]c(CN3CC4CC(C3)N4C(=O)Nc3cc(Cl)ccc3C)nc2c1 [C3, N-(5-chloro-2-methylphenyl)-3-((7-methyl-4-oxo-3,4-dihydroquinazolin-2-yl)methyl)-3,6-diazabicyclo[3.1.1]heptane-6-carboxamide]	197.7 to 199.3 °C	–	–	IC50 (HCT-15 cell lines; HCT-15, 72 h): 28.4 ± 2.87 µM; IC50 (HCC1937 cell lines; HCC1937, 72 h): 30.1 ± 3.12 µM
O=C(Nc1ccc(Cl)cc1)N1CCN(Cc2nc3ccccc3c(=O)[nH]2)CC1 [A6, N-(4-chlorophenyl)-4-((4-oxo-3,4-dihydroquinazolin-2-yl)methyl)piperazine-1-carboxamide]	189.8 to 191.4 °C	21.4 ± 0.86 µM	> 50 µM	–
Cc1ccc(Cl)cc1NC(=O)N1CCN(Cc2nc3ccccc3c(=O)[nH]2)CC1 [A32, N-(5-chloro-2-methylphenyl)-4-((4-oxo-3,4-dihydroquinazolin-2-yl)methyl)piperazine-1-carboxamide]	203.1 to 204.7 °C	10.9 ± 0.71 µM	11.3 ± 0.73 µM	–
Cc1cccc(C)c1NC(=O)N1CCN(Cc2nc3ccccc3c(=O)[nH]2)CC1 [A33, N-(2,6-dimethylphenyl)-4-((4-oxo-3,4-dihydroquinazolin-2-yl)methyl)piperazine-1-carboxamide]	200.3 to 201.9 °C	35 ± 2.28 µM	39.6 ± 1.35 µM	–
Cc1ccc(Cl)cc1NC(=O)N1C[C@@H]2C[C@H]1CN2Cc1nc2ccccc2c(=O)[nH]1 [B3, (1S,4S)-N-(5-chloro-2-methylphenyl)-5-((4-oxo-3,4-dihydroquinazolin-2-yl)methyl)-2,5-diazabicyclo[2.2.1]heptane-2-carboxamide]	191.1 to 192.4 °C	12.5 ± 1.49 µM	16.5 ± 0.94 µM	–
O=C(Nc1cccc(Cl)c1)N1CCN(Cc2nc3ccccc3c(=O)[nH]2)CC1 [A5, N-(3-chlorophenyl)-4-((4-oxo-3,4-dihydroquinazolin-2-yl)methyl)piperazine-1-carboxamide]	193.3 to 195.2 °C	19.1 ± 0.79 µM	25.9 ± 0.96 µM	–
O=c1[nH]c(CN2CCNCC2)nc2ccccc12 [compound 4]	–	–	–	inhibition at 50 µM (HCT-15 cell lines; HCT-15, 50 μM, 72 h, MTT): 48.9%; inhibition at 50 µM (HCC1937 cell lines; HCC1937, 50 μM, 72 h, MTT): 16.5%
O=c1[nH]c(CCl)nc2ccccc12 [compound 2]	–	–	–	inhibition at 50 µM (HCT-15 cell lines; HCT-15, 50 μM, 72 h, MTT): 31.9%; inhibition at 50 µM (HCC1937 cell lines; HCC1937, 50 μM, 72 h, MTT): 10.3%
Oc1ccc(N2CCNCC2)cc1 [compound 23]	–	–	–	Inhibition rate (%) HCT-15 (HCT-15 cell lines; 50 μM, 72 h, MTT): 41.9%; Inhibition rate (%) HCC1937 (HCC1937 cell lines; 50 μM, 72 h, MTT): 9.2%
C[C@H](CCC(=O)O)[C@H]1CC[C@H]2[C@@H]3C(=O)C[C@@H]4CC(=O)CC[C@]4(C)[C@H]3CC(=O)[C@]12C [compound 35]	–	–	–	Inhibition rate (%) HCT-15 (HCT-15 cell lines; 50 μM, 72 h, MTT): 12.3%; Inhibition rate (%) HCC1937 (HCC1937 cell lines; 50 μM, 72 h, MTT): 21.4%
